Results from paper PMC5218480 (PLoS ONE, 2017).

Test system: MV-4-11 cells
Assay: Gene expression microarray analysis (Affymetrix PrimeView) and GSEA
Type: cell-based, human
Parameters: RFU PODN (11730768_x_at) / Fold change /veh PODN (11730768_x_at) / RFU LINC00158 (11744669_a_at) / Fold change /veh LINC00158 (11744669_a_at) / RFU DUSP10 (11751237_a_at) / Fold change /veh DUSP10 (11751237_a_at) / RFU ID3 (11757404_x_at) / Fold change /veh ID3 (11757404_x_at) / RFU PLEKHG5 (11737974_s_at) / Fold change /veh PLEKHG5 (11737974_s_at) / RFU LRRC4B (11730491_at) / Fold change /veh LRRC4B (11730491_at) / RFU GIMAP4 (11747438_a_at) / Fold change /veh GIMAP4 (11747438_a_at) / RFU KRT8 (11758183_x_at) / Fold change /veh KRT8 (11758183_x_at) / RFU CNN1 (11734310_a_at) / Fold change /veh CNN1 (11734310_a_at) / RFU VPS37D (11726825_at) / Fold change /veh VPS37D (11726825_at) / RFU C10orf10 (11716522_x_at) / Fold change /veh C10orf10 (11716522_x_at) / RFU KIR2DL2 /// KIR2DL4 /// KIR2DL5A /// KIR2DL5B /// KIR2DS1 /// KIR2DS2 /// KIR2DS3 /// KIR2DS4 /// KIR3DL3 /// KIR3DL3 /// KIR3DS1 (11738374_at) / Fold change /veh KIR2DL2 /// KIR2DL4 /// KIR2DL5A /// KIR2DL5B /// KIR2DS1 /// KIR2DS2 /// KIR2DS3 /// KIR2DS4 /// KIR3DL3 /// KIR3DL3 /// KIR3DS1 (11738374_at) / RFU C1QL1 (11718748_at) / Fold change /veh C1QL1 (11718748_at) / RFU TMPRSS4 (11747572_a_at) / Fold change /veh TMPRSS4 (11747572_a_at) / RFU HAMP (11756126_x_at) / Fold change /veh HAMP (11756126_x_at) / RFU RNFT2 (11725882_a_at) / Fold change /veh RNFT2 (11725882_a_at) / RFU NR4A2 (11747474_a_at) / Fold change /veh NR4A2 (11747474_a_at) / RFU ABCC12 (11746883_a_at) / Fold change /veh ABCC12 (11746883_a_at) / RFU TMEM136 (11760407_x_at) / Fold change /veh TMEM136 (11760407_x_at) / RFU CLDN22 /// WWC2 (11732394_at) / Fold change /veh CLDN22 /// WWC2 (11732394_at) / RFU HLA-DPB1 (11760878_x_at) / Fold change /veh HLA-DPB1 (11760878_x_at) / RFU SPINT1 (11716480_a_at) / Fold change /veh SPINT1 (11716480_a_at) / RFU GAP43 (11754022_s_at) / Fold change /veh GAP43 (11754022_s_at) / RFU A4GNT (11735810_at) / Fold change /veh A4GNT (11735810_at) / RFU PRB3 (11715151_x_at) / Fold change /veh PRB3 (11715151_x_at) / RFU TUBB4B (11761932_at) / Fold change /veh TUBB4B (11761932_at) / RFU CAPN14 (11732068_a_at) / Fold change /veh CAPN14 (11732068_a_at) / RFU TMCC2 (11721928_a_at) / Fold change /veh TMCC2 (11721928_a_at) / RFU IRGQ (11745062_a_at) / Fold change /veh IRGQ (11745062_a_at) / RFU FAM174B (11720279_a_at) / Fold change /veh FAM174B (11720279_a_at) / RFU TMPRSS4 (11748680_a_at) / Fold change /veh TMPRSS4 (11748680_a_at) / RFU FAM212B (11763350_a_at) / Fold change /veh FAM212B (11763350_a_at) / RFU PLEKHG5 (11743358_a_at) / Fold change /veh PLEKHG5 (11743358_a_at) / RFU ZSCAN30 (11745921_a_at) / Fold change /veh ZSCAN30 (11745921_a_at) / RFU CMKLR1 (11741424_a_at) / Fold change /veh CMKLR1 (11741424_a_at) / RFU LOC101060620 /// MAPK8IP1 (11723275_at) / Fold change /veh LOC101060620 /// MAPK8IP1 (11723275_at) / RFU SPTSSB (11747773_x_at) / Fold change /veh SPTSSB (11747773_x_at) / RFU PRSS12 (11739890_at) / Fold change /veh PRSS12 (11739890_at) / RFU BIN1 (11741810_x_at) / Fold change /veh BIN1 (11741810_x_at) / RFU WNT11 (11732464_a_at) / Fold change /veh WNT11 (11732464_a_at) / RFU C10orf10 (11716521_a_at) / Fold change /veh C10orf10 (11716521_a_at) / RFU C5orf56 (11738089_at) / Fold change /veh C5orf56 (11738089_at) / RFU CYB561 (11721691_x_at) / Fold change /veh CYB561 (11721691_x_at) / RFU ANKRD19P (11752326_a_at) / Fold change /veh ANKRD19P (11752326_a_at) / RFU OR2T12 /// OR2T33 /// OR2T8 (11738714_s_at) / Fold change /veh OR2T12 /// OR2T33 /// OR2T8 (11738714_s_at) / RFU VCAN (11748164_a_at) / Fold change /veh VCAN (11748164_a_at) / RFU JSRP1 (11732532_at) / Fold change /veh JSRP1 (11732532_at) / RFU KRTAP10-11 (11738290_x_at) / Fold change /veh KRTAP10-11 (11738290_x_at) / RFU MYO3A (11730013_a_at) / Fold change /veh MYO3A (11730013_a_at) / RFU EBF3 (11725865_a_at) / Fold change /veh EBF3 (11725865_a_at) / RFU CAMK2N1 (11719241_x_at) / Fold change /veh CAMK2N1 (11719241_x_at) / RFU C5orf56 (11738088_a_at) / Fold change /veh C5orf56 (11738088_a_at) / RFU OLFML3 (11715873_a_at) / Fold change /veh OLFML3 (11715873_a_at) / RFU LOC100653217 /// NTM (11731650_a_at) / Fold change /veh LOC100653217 /// NTM (11731650_a_at) / RFU MAPK11 (11762145_a_at) / Fold change /veh MAPK11 (11762145_a_at) / RFU FIZ1 (11724087_x_at) / Fold change /veh FIZ1 (11724087_x_at) / RFU OASL (11726364_x_at) / Fold change /veh OASL (11726364_x_at) / RFU SOX15 (11748057_x_at) / Fold change /veh SOX15 (11748057_x_at) / RFU CD79A (11719716_a_at) / Fold change /veh CD79A (11719716_a_at) / RFU HIST1H1D (11736915_at) / Fold change /veh HIST1H1D (11736915_at) / RFU CASKIN2 (11723855_a_at) / Fold change /veh CASKIN2 (11723855_a_at) / RFU LOC730098 (11760151_x_at) / Fold change /veh LOC730098 (11760151_x_at) / RFU OR4N2 (11742367_at) / Fold change /veh OR4N2 (11742367_at) / RFU PRRT2 (11749266_a_at) / Fold change /veh PRRT2 (11749266_a_at) / RFU SNX32 (11753110_a_at) / Fold change /veh SNX32 (11753110_a_at) / RFU CDHR5 (11726645_a_at) / Fold change /veh CDHR5 (11726645_a_at) / RFU RCAN1 (11760418_a_at) / Fold change /veh RCAN1 (11760418_a_at) / RFU FAM167A (11723789_a_at) / Fold change /veh FAM167A (11723789_a_at) / RFU FAM26E (11764081_at) / Fold change /veh FAM26E (11764081_at) / RFU ISYNA1 (11749810_s_at) / Fold change /veh ISYNA1 (11749810_s_at) / RFU ACY1 (11761880_at) / Fold change /veh ACY1 (11761880_at) / RFU 11764098_at / Fold change /veh 11764098_at / RFU SAMD14 (11745864_x_at) / Fold change /veh SAMD14 (11745864_x_at) / RFU NPB (11741838_a_at) / Fold change /veh NPB (11741838_a_at) / RFU TMPRSS6 (11731388_a_at) / Fold change /veh TMPRSS6 (11731388_a_at) / RFU KRTAP10-2 (11738614_at) / Fold change /veh KRTAP10-2 (11738614_at) / RFU ARHGAP8 /// PRR5-ARHGAP8 (11727945_x_at) / Fold change /veh ARHGAP8 /// PRR5-ARHGAP8 (11727945_x_at) / RFU KRTAP5-7 /// NADSYN1 (11734609_at) / Fold change /veh KRTAP5-7 /// NADSYN1 (11734609_at) / RFU RASL12 (11751679_a_at) / Fold change /veh RASL12 (11751679_a_at) / RFU CDKN2B (11736163_a_at) / Fold change /veh CDKN2B (11736163_a_at) / RFU PRF1 (11729649_at) / Fold change /veh PRF1 (11729649_at) / RFU, ZNF638 /// ZNF638-IT1 / Fold change vs veh, ZNF638 /// ZNF638-IT1 / RFU, PANK3 / Fold change vs veh, PANK3 / RFU, SH3YL1 / Fold change vs veh, SH3YL1 / RFU, ZEB2 / Fold change vs veh, ZEB2 / RFU, NRIP1 / Fold change vs veh, NRIP1 / RFU, PTTG1IP / Fold change vs veh, PTTG1IP / RFU, CAPN2 / Fold change vs veh, CAPN2 / RFU, MED14 / Fold change vs veh, MED14 / RFU, SNORA58 / Fold change vs veh, SNORA58 / RFU, C1orf63 / Fold change vs veh, C1orf63 / RFU, LRRFIP1 / Fold change vs veh, LRRFIP1 / RFU, NDUFAF7 / Fold change vs veh, NDUFAF7 / RFU, SLC12A2 / Fold change vs veh, SLC12A2 / RFU, IBTK / Fold change vs veh, IBTK / RFU, ESF1 / Fold change vs veh, ESF1 / Fold change vs veh, TMEM50B / RFU, TAOK1 / Fold change vs veh, TAOK1 / RFU, ACBD3 / Fold change vs veh, ACBD3 / RFU, TMA16 / Fold change vs veh, TMA16 / RFU, RWDD3 / Fold change vs veh, RWDD3 / RFU, BCAT1 / Fold change vs veh, BCAT1 / RFU, EDEM3 / Fold change vs veh, EDEM3 / RFU, TMEM33 / Fold change vs veh, TMEM33 / RFU, WDR75 / Fold change vs veh, WDR75 / RFU, AHCTF1 / Fold change vs veh, AHCTF1 / RFU, TFRC / Fold change vs veh, TFRC / RFU, ZDHHC17 / Fold change vs veh, ZDHHC17 / RFU, NOM1 / Fold change vs veh, NOM1 / RFU, ARL8B / Fold change vs veh, ARL8B / RFU, ZBTB11 / Fold change vs veh, ZBTB11 / RFU, TAMM41 / Fold change vs veh, TAMM41 / RFU, KIAA1704 /// LOC100996395 / Fold change vs veh, KIAA1704 /// LOC100996395 / RFU, ING1 / Fold change vs veh, ING1 / RFU, TRMT61B / Fold change vs veh, TRMT61B / RFU, FUBP3 / Fold change vs veh, FUBP3 / RFU, TP53 / Fold change vs veh, TP53 / RFU, TNKS2 / Fold change vs veh, TNKS2 / RFU, ZFP14 / Fold change vs veh, ZFP14 / RFU, ACTR2 / Fold change vs veh, ACTR2 / RFU, PPP3R1 / Fold change vs veh, PPP3R1 / RFU, PIK3R1 / Fold change vs veh, PIK3R1 / RFU, HNRNPA1 / Fold change vs veh, HNRNPA1 / RFU, RNF170 / Fold change vs veh, RNF170 / RFU, ZNF28 / Fold change vs veh, ZNF28 / RFU, RNGTT / Fold change vs veh, RNGTT / RFU, OGT / Fold change vs veh, OGT / RFU, BRD1 / Fold change vs veh, BRD1 / RFU, MARS / Fold change vs veh, MARS / RFU, ZNF655 / Fold change vs veh, ZNF655 / RFU, FAHD1 / Fold change vs veh, FAHD1 / RFU, BDP1 / Fold change vs veh, BDP1 / RFU, LRRCC1 / Fold change vs veh, LRRCC1 / RFU, ARID1A / Fold change vs veh, ARID1A / RFU, ZNF146 / Fold change vs veh, ZNF146 / RFU, ZNF330 / Fold change vs veh, ZNF330 / RFU, GPN3 / Fold change vs veh, GPN3 / RFU, C9orf123 / Fold change vs veh, C9orf123 / RFU, N4BP2L2 / Fold change vs veh, N4BP2L2 / RFU, ARFIP1 / Fold change vs veh, ARFIP1 / RFU, FAM179B / Fold change vs veh, FAM179B / RFU, BCL10 / Fold change vs veh, BCL10 / RFU, UHRF1BP1L / Fold change vs veh, UHRF1BP1L / RFU, BET1 / Fold change vs veh, BET1 / RFU, CNOT2 / Fold change vs veh, CNOT2 / RFU, ZNF268 / Fold change vs veh, ZNF268 / Fold change vs veh, ZNF507 / RFU, DGCR2 / Fold change vs veh, DGCR2 / RFU, WDSUB1 / Fold change vs veh, WDSUB1 / Fold change vs veh, HSP90B1 /// MIR3652 / RFU, ADSS / Fold change vs veh, ADSS / RFU, GK / Fold change vs veh, GK / RFU, ZNF148 / Fold change vs veh, ZNF148 / RFU, TAF9 / Fold change vs veh, TAF9 / RFU, SLC1A5 / Fold change vs veh, SLC1A5 / RFU, SLMO2 / Fold change vs veh, SLMO2 / RFU, ABCC4 / Fold change vs veh, ABCC4 / RFU, LOC101060439 /// RAP1B / Fold change vs veh, LOC101060439 /// RAP1B / RFU, RFX7 / Fold change vs veh, RFX7 / RFU, GTPBP10 / Fold change vs veh, GTPBP10 / RFU, CNEP1R1 / Fold change vs veh, CNEP1R1 / RFU, BIVM-ERCC5 /// ERCC5 / Fold change vs veh, BIVM-ERCC5 /// ERCC5 / RFU, ILF3 / Fold change vs veh, ILF3 / RFU 11762660_at / Fold change /veh 11762660_at / RFU VCAN (11757783_s_at) / Fold change /veh VCAN (11757783_s_at) / RFU DDX43 (11728927_at) / Fold change /veh DDX43 (11728927_at) / RFU KRT8 (11758188_x_at) / Fold change /veh KRT8 (11758188_x_at) / RFU NKD1 (11759106_at) / Fold change /veh NKD1 (11759106_at) / RFU SRD5A1 (11742802_a_at) / Fold change /veh SRD5A1 (11742802_a_at) / RFU TPSAB1 /// TPSB2 (11721975_s_at) / Fold change /veh TPSAB1 /// TPSB2 (11721975_s_at) / RFU GSTM3 (11746129_a_at) / Fold change /veh GSTM3 (11746129_a_at) / RFU IL23R (11737362_x_at) / Fold change /veh IL23R (11737362_x_at) / RFU TMEM51 (11727254_a_at) / Fold change /veh TMEM51 (11727254_a_at) / RFU PIWIL2 (11732686_x_at) / Fold change /veh PIWIL2 (11732686_x_at) / RFU ORM1 (11744905_x_at) / Fold change /veh ORM1 (11744905_x_at) / RFU CCDC152 (11743942_at) / Fold change /veh CCDC152 (11743942_at) / RFU ECM1 (11717891_a_at) / Fold change /veh ECM1 (11717891_a_at) / RFU IL23R (11748794_a_at) / Fold change /veh IL23R (11748794_a_at) / RFU TNFAIP8L3 (11732012_x_at) / Fold change /veh TNFAIP8L3 (11732012_x_at) / RFU MBOAT4 (11741988_at) / Fold change /veh MBOAT4 (11741988_at) / RFU 11764193_at / Fold change /veh 11764193_at / RFU TMEM53 (11763286_at) / Fold change /veh TMEM53 (11763286_at) / RFU MAGEB2 (11727129_at) / Fold change /veh MAGEB2 (11727129_at) / RFU TMEM200A (11744735_a_at) / Fold change /veh TMEM200A (11744735_a_at) / RFU CCDC152 (11751479_a_at) / Fold change /veh CCDC152 (11751479_a_at) / RFU FAM211A (11726209_a_at) / Fold change /veh FAM211A (11726209_a_at) / RFU RGS16 (11746705_a_at) / Fold change /veh RGS16 (11746705_a_at) / RFU VCAN (11755009_s_at) / Fold change /veh VCAN (11755009_s_at) / RFU RHOB (11743442_s_at) / Fold change /veh RHOB (11743442_s_at) / RFU RGS16 (11720943_a_at) / Fold change /veh RGS16 (11720943_a_at) / RFU RGS16 (11720944_at) / Fold change /veh RGS16 (11720944_at) / RFU, VPS4B / Fold change vs veh, VPS4B / RFU, CREB1 / Fold change vs veh, CREB1 / RFU, DNAJC13 / Fold change vs veh, DNAJC13 / RFU, GNAQ / Fold change vs veh, GNAQ / RFU, CDK5R1 / Fold change vs veh, CDK5R1 / RFU, ZRANB3 / Fold change vs veh, ZRANB3 / RFU, CUL4A / Fold change vs veh, CUL4A / RFU, CCNY / Fold change vs veh, CCNY / RFU, UFL1 / Fold change vs veh, UFL1 / RFU, COG3 / Fold change vs veh, COG3 / RFU, DIAPH2 / Fold change vs veh, DIAPH2 / RFU, SKA2 / Fold change vs veh, SKA2 / RFU, AFF3 / Fold change vs veh, AFF3 / RFU, LMF1 / Fold change vs veh, LMF1 / RFU, IPO11 / Fold change vs veh, IPO11 / RFU, DFFB / Fold change vs veh, DFFB / RFU, FOXP1 / Fold change vs veh, FOXP1 / RFU, CARD8 / Fold change vs veh, CARD8 / RFU, STRN3 / Fold change vs veh, STRN3 / RFU, ADK / Fold change vs veh, ADK / RFU, RASSF2 / Fold change vs veh, RASSF2 / RFU, WIPF1 / Fold change vs veh, WIPF1 / RFU, LARP1B / Fold change vs veh, LARP1B / RFU, RASA1 / Fold change vs veh, RASA1 / RFU, RB1 / Fold change vs veh, RB1 / RFU, PPFIA1 / Fold change vs veh, PPFIA1 / RFU, MAT2A / Fold change vs veh, MAT2A / RFU, CCT5 / Fold change vs veh, CCT5 / RFU, WDR92 / Fold change vs veh, WDR92 / RFU, CUX1 / Fold change vs veh, CUX1 / RFU, TTC7A / Fold change vs veh, TTC7A / RFU, TMEM135 / Fold change vs veh, TMEM135 / RFU, DEPTOR / Fold change vs veh, DEPTOR / RFU, CPM / Fold change vs veh, CPM / RFU, DNAJB6 / Fold change vs veh, DNAJB6 / RFU, CACNA2D3 / Fold change vs veh, CACNA2D3 / RFU, DTX4 / Fold change vs veh, DTX4 / RFU, TFCP2 / Fold change vs veh, TFCP2 / RFU, GMCL1 /// GMCL1P1 / Fold change vs veh, GMCL1 /// GMCL1P1 / RFU, AEBP2 / Fold change vs veh, AEBP2 / RFU, SNHG1 /// SNORD22 /// SNORD25 /// SNORD26 /// SNORD27 /// SNORD28 /// SNORD29 /// SNORD31 / Fold change vs veh, SNHG1 /// SNORD22 /// SNORD25 /// SNORD26 /// SNORD27 /// SNORD28 /// SNORD29 /// SNORD31 / Fold change (Aza/veh), C12orf56 (ProbeSet 11735607_a_at) / Fold change (ACY-1035/veh), C12orf56 (ProbeSet 11735607_a_at) / Fold change (Aza/veh), FGFR1OP (ProbeSet 11751329_s_at) / Fold change (ACY-1035/veh), FGFR1OP (ProbeSet 11751329_s_at) / Fold change (Aza/veh), VPS36 (ProbeSet 11739960_a_at) / Fold change (ACY-1035/veh), VPS36 (ProbeSet 11739960_a_at) / RFU SYPL1 (11715823_x_at) / Fold change /veh SYPL1 (11715823_x_at) / RFU IGFBP7 (11715501_s_at) / Fold change /veh IGFBP7 (11715501_s_at) / RFU REEP3 (11722064_at) / Fold change /veh REEP3 (11722064_at) / RFU IGLL1 (11728026_x_at) / Fold change /veh IGLL1 (11728026_x_at): dose or concentration left out as unconfirmed
Details: ProbeSet 11727827_x_at; LIST B

## Nc1ncn([C@@H]2O[C@H](CO)[C@@H](O)[C@H]2O)c(=O)n1 [azacitidine]
  RFU, NDUFAF7: 58.08 RFU
